# Data: article PMC3923439, “Anti-inflammatory properties of a novel peptide interleukin 1 receptor antagonist” (Journal of Neuroinflammation, 2014)
# Positions of bridges follow the written chain, without caps; N, C: chain ends. Chains are numbered I, II in the order given. No end group written: not given here.
# Tests used:
# AMJ2-C8 macrophages = experiment: TNF-α secretion from IL-1β-activated macrophages (L929 bioassay); type: cell-based, mouse; conditions: 1.2 pM IL-1β, 24 hours; TNF-α by L929 survival with actinomycin D; hydrocortisone at 100 μM
# Experimental: A murine alveolar macrophage cell line, AMJ2-C8 (American Type Culture Collection, Borås, Sweden), was routinely grown at 37°C with 5% CO2 in DMEM supplemented with 5% (vol/vol) FCS, 0.5% (v/v) 2-[4-(2-hydroxyethyl)piperazin-1-yl]ethanesulfonic acid (HEPES) (Gibco BRL), 2 mM GlutaMAX, 100 U/ml penicillin and 100 μg/ml streptomycin.
# AMJ2-C8 macrophages were seeded into six-well multidishes at a density of 2.5 × 10^5 cells/well, and sIL-1RI, IL-1Ra or various concentrations of Ilantide were added to the cultures. Treatment with 100 μM hydrocortisone (Sigma-Aldrich, Brøndby, Denmark) was used as a positive control. After 10-minute incubation at 37°C, 1.2 pM IL-1β or IFN-γ (R&D Systems) was added to activate the macrophages. L929 cells were seeded onto a 96-well plate (Nunc, Roskilde, Denmark) at a density 0.2 × 10^2 cells/ml. Both cell cultures were incubated for 24 hours at 37°C. Conditioned medium from macrophages was collected and added to the L929 cell cultures together with actinomycin D (0.6 μg/well; Sigma-Aldrich). TNF-α is known to induce classic apoptosis in L929 cells in the presence of actinomycin D [12]. After 24-hour incubation at 37°C, 20 μl of 3-(4,5-dimethylthiazol-2-yl)-5-(3-carboxymethoxyphenyl)-2-(4-sulfophenyl)-2H-tetrazolium (Promega, Madison, WI, USA) were added to each well and incubated at 37°C in the dark for 45 minutes, then measured in an ELISA reader at 490 nm. To calculate the amount of TNF-α in the conditioned medium, fibroblasts were treated with standard concentrations of TNF-α (R&D Systems).
# [1] = system: Cerebellar granule neurons; experiment: Survival of cerebellar granule neurons induced to undergo apoptosis by low potassium; type: cell-based, rat; conditions: 5 mM KCl, survival estimated 48 hours later
# Experimental: (§1) Cerebellar granule neurons (CGNs) were prepared from 7-day-old Wistar rats (from Charles River Laboratories, Sulzfeld, Germany; or from Hygind Møllegård Erik Møllegaard Hansen, Ejby, Denmark) as previously described. Briefly, the cerebella were cleared of meninges and blood vessels, roughly homogenized by chopping and trypsinized. The cells were washed in the presence of DNAse I and soybean trypsin inhibitor (Sigma-Aldrich, St Louis, MO, USA), and cellular debris was pelleted by centrifugation. The fibroblastoid mouse cell line L929 (LVN; European Collection of Cell Cultures, Porton Down, UK) was routinely grown at 37°C with 5% CO2 in DMEM supplemented with 10% (vol/vol) FCS, 2 mM GlutaMAX, 100 U/ml penicillin and 100 μg/ml streptomycin.
# (§2) Cerebellar granule neurons were plated at a density of 1 × 10^5 cells/cm^2 on poly-L-lysine-coated, eight-well Permanox Lab-Tek chamber slides (Nunc) in Neurobasal-A medium supplemented with 2% (vol/vol) B27 (Gibco BRL), 0.5% (vol/vol) GlutaMAX, 100 U/ml penicillin and 100 μg/ml streptomycin. The CGN survival assay was performed as previously described. The neurite outgrowth assay was also performed as previously described.
# Figure 5 Effect of Ilantide and interleukin 1 receptor antagonist on survival of cerebellar granule neurons induced to undergo apoptosis. The neurons were allowed to differentiate for 7 days in a high-potassium (40 mM) medium before apoptosis was induced by changing to a low-potassium medium (5 mM). Survival was estimated 48 hours later. (A) The effect of insulin-like growth factor 1 (IGF-1), interleukin 1 receptor antagonist (IL-1Ra) and IL-1β on cerebellar granule neuron (CGN) apoptosis induced by 5 mM KCl. (B) The effect of Ilantide-m on CGN apoptosis induced by 5 mM KCl. […] The results from at least four independent experiments are expressed as mean ± SEM with untreated cultures induced to undergo apoptosis by 5 mM KCl set at 100%. *P < 0.05 and **P < 0.01 compared with untreated cultures induced to undergo apoptosis (one-way analysis of variance followed by Newman-Keuls post hoc test).
# [2] = system: double-Ig module (Ig1-Ig2) of NCAM; experiment: Surface plasmon resonance, negative control protein; type: binding; conditions: SPR
# Experimental: The binding analysis was performed using a Biacore 2000 instrument (GE Healthcare Life Sciences) that contained 150 mM NaCl as running buffer at 25°C with 10 mM sodium phosphate (pH 7.4). The flow rate was 5 μl/min during immobilization. Ilantide peptide, IL-1β or IL-1Ra was immobilized on a CM4 sensor chip according to the manufacturer’s instructions, after which the recombinant ectodomain of IL-1RI (R&D Systems) was injected. The neural cell adhesion molecule (NCAM) immunoglobulin modules 1 and 2 (Ig1 and Ig2) were used as a negative control protein [9]. The data were analyzed using nonlinear curve-fitting with the manufacturer’s software.
# [3] = system: Cerebellar granule neurons; experiment: Neurite outgrowth from cerebellar granule neurons; type: cell-based, rat; conditions: 7-day-old CGNs grown on fibroblast cells, 24 hours
# Experimental: as §1, §2
# Figure 6 Effect of Ilantide on neurite outgrowth from cerebellar granule neurons. Cerebellar granule neuron cultures were treated with interleukin 1 receptor antagonist (IL-1Ra) (A), soluble interleukin 1 receptor type I (sIL-1RI) (B), Ilantide-t (C) or IL-1β (D) for 24 hours. The cultures were fixed and immunostained with rabbit anti-rat growth-associated protein 43 (anti-GAP-43) primary antibodies and then with secondary Alexa Fluor 488 goat anti-rabbit antibodies. (E) Effect of IL-1β on neurite outgrowth induced by IL-1Ra. (F) Effect of IL-1β on neurite outgrowth induced by Ilantide-t. The results from three to four independent experiments are expressed as percentage ± SEM with untreated controls set at 100%, corresponding to an average neurite length of 19.3 ± 4.1 μm. *P < 0.05 and **P < 0.01 compared with untreated controls (A to D) or cultures treated with either IL-1Ra or Ilantide alone (E and F) by one-way analysis of variance followed by the Newman-Keuls post hoc test).
substance,measurement,setting,value
"I: SGRKSSKMQAKK-NH2 / II: SGRKSSKMQAK / III: SGRKSSKMQA / IV: SGRKSSKMQA (amide I:11-IV:C, I:12-II:C, II:11-III:C; C-terminus assumed) [Ilantide-t]",Inhibition of IL-1β-induced TNF-α secretion in macrophages,AMJ2-C8 macrophages,significantly inhibited
same,CGN survival after potassium withdrawal,[1],concentration-dependently promoted CGN survival
same,Binding to double-Ig module of NCAM (negative control),[2],no significant binding
same,Neurite outgrowth from CGNs,[3],significantly induced neurite outgrowth
IL-1Ra: recombinant interleukin 1 receptor antagonist purchased from R&D Systems,Inhibition of IL-1β-induced TNF-α secretion in macrophages,AMJ2-C8 macrophages,significantly inhibited
same,CGN survival after potassium withdrawal,[1],concentration-dependently promoted CGN survival
same,Binding to double-Ig module of NCAM (negative control),[2],no significant binding
same,Neurite outgrowth from CGNs,[3],significantly induced neurite outgrowth
